Consider one compound from patent publication US20170152245A1 (National Taiwan University, priority 2015, published 2017).

Experiment [1] concerns human platelet suspension. The experiment can be described thus: ADP-induced platelet aggregation in human platelet suspension. The class given is cell-based. The method, then:
Human platelet suspension (PS) was prepared according to the method described previously. Briefly, blood sample, freshly obtained from healthy volunteers who had taken no medications during the preceding 2 weeks, was treated with acid citrate/dextrose (ACD) in a volume ratio of 9:1. After centrifugation at 120 g, 25° C. for 9 min, platelet-rich plasma was transferred into another plastic tube and incubated with heparin (6.4 U/ml) as well as prostaglandin E1 (1 μM). Platelets were spun down by centrifugation at 500 g, 25° C. for 8 min and subsequently washed two times with Tyrode solution (NaH2PO4 0.4 mM; NaCl 136.9 mM; KCl […]; NaHCO3 11.9 mM; CaCl2 2 mM; MgCl2 2.1 mM; glucose 11.1 mM; BSA 3.5 mg/ml; pH 7.35-7.4). The washed platelets were finally suspended in Tyrode's solution and the platelet count was adjusted to 3.75×10^8 platelets/ml. For platelet-rich plasma (PRP) preparation, whole blood was anticoagulated with 1/10 vol of sodium citrate (3.8%, w/v) and centrifuged at 150 g, 25° C. for 9 min.
Platelet aggregation was measured turbidimetrically with a Lumi-aggregometer (Payton Scientific) at 37° C. under stirring condition (900 rpm). Platelet suspensions were prewarmed to 37° C. for 2 min in a silicone-treated glass cuvette. Nstpbp5185 was added 3 min before the addition of platelet-aggregation inducers. The extent of platelet aggregation was determined by recording the increase of light transmission relative to that of control (maximal aggregation, as 100%) for 6 min after the addition of inducer. The final volume and platelet count for measuring platelet aggregation were 500 μl and 3×10^8/ml, respectively.

The target in a further experiment is T1, Thromboxane synthase (Homo sapiens, UniProt P24557).
T1 construct: MDS
T1 sequence (P24557 1-533): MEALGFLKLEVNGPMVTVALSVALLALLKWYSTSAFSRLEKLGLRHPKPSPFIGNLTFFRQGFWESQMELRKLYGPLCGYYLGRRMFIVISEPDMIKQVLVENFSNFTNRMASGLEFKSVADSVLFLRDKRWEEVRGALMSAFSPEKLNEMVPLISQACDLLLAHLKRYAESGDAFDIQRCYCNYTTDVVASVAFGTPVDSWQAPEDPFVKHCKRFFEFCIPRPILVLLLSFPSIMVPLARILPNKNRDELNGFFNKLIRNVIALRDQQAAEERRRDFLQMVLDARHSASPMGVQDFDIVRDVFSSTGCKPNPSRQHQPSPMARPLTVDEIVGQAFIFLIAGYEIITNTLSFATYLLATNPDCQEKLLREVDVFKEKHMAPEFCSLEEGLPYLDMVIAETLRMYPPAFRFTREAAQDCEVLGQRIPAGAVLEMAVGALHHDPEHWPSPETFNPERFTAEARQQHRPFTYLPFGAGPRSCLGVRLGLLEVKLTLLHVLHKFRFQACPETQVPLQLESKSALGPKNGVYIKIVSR
Put plainly: Thromboxane synthase activity (Table III comparison). The class given is biochemical. The method, then: These kinases or enzymatic assays were performed by MDS according to the standardized methods

The next experiment relates to rat carotid artery. Put plainly: Balloon-injury rat carotid artery model (neointima formation). As to conditions: 1 or 2 mg/kg/day intraperitoneally for 2 weeks; rats. In kind it is in vivo. The procedure: We used the established rat carotid artery (CA) model of balloon angioplasty to examine the in vivo arterial response to injury^20. Briefly, male Wistar rats weighing 350-400 g were anesthetized with intraperitoneal pentobarbital (50 mg/kg), and the left CA was exposed. A Fogarty 2F embolectomy balloon catheter was inserted into the left external carotid artery through arteriotomy incision and advanced to the aortic arch. The balloon was inflated and withdrawn three times with rotation at the same pressure. Followed by removal of the catheter, the external carotid artery was ligated and the wound closed. Animals were given standard rat chow and tap water, and i.p. administered 1 and 2 mg/kg or vehicle daily for 2 weeks, at which time they were sacrificed, and the sections from both the right and left (collateral control group) CA were harvested to fix with 4% paraformaldehyde in PBS overnight for study. All procedures involving animal experiments were approved by the Institutional Animal Care and Use Committee of Collagen of Medicine, National Taiwan University.
We further determined the inhibitory effect of nstpbp5185 on neointima formation after carotid artery injury. […] (FIG. 16G) Data are quantified by the neointima/media ratio of common carotid arteries after balloon injury. […]

A further experiment relates to mice. The experiment can be described thus: OVA-induced asthmatic mice (sensitization and airway challenge). In kind it is in vivo. The method, then:
Mice were divided into groups receiving the following treatments: (1) sham sensitization plus challenge with phosphate buffered saline (PBS) (n=5), (2) sensitization plus challenge with OVA (Sigma A5503; Sigma, St. Louis, Mo.) (n=10), and (3 and 4) sensitization with OVA (i.p.) plus challenge with and nstpbp5185 (10 or 20 mg/kg) (n=6-7). […] Mice were challenged through the airway with 100 μg OVA in 40 μL PBS buffer via intranasal administration (i.n.) days 36, 37 and 38 and AHR induced by methacholine (MCh) were measured at day 39. Animals were sacrificed 24 h after the AHR measurement. The mice were placed in the main chamber of a whole body plethysmograph (Buxco Electronics, Inc., Sharon, Conn., USA) and challenged with aerosolized 0.9% normal saline accompanied by increasing doses of methacholine (6.25-50 mg/ml). Each nebulization lasted for 3 min, and after each nebulization, recordings were taken and averaged for the 3 min. The Penh values were determined, and the data were expressed as Penh values.
Serum were collected and stored at −70° C. after centrifugation (3000 rpm, 10 min). The amount of OVA-specific IgE was determined by ELISA. Briefly, 96-well plates were coated with OVA at 10 μg/well. After the plates were blocked, 100 μl/well of diluted sera was added, and the plates were incubated at room temperature for 2 h or at 4° C. overnight. After incubation, the plates were washed five times with PBS with Tween 20 buffer, the secondary antibody (biotinylated rat anti-mouse IgE; AbD Serotec, Kidlington, UK) was added and plates were incubated for 1 h at room temperature. […] The avidin-horseradish peroxidase was removed by washing with PBS with Tween 20 buffer, and the bound enzyme substrate was detected by adding tetramethylbenzidine reagent (KPL, Gaithersburg, Md., USA). […] Optical density was measured at 450 nm (550 nm was used as a reference filter) in a microplate autoreader (Anthos Reader 2010; Anthos Labtec Instruments GmbH, Salzburg, Austria).

For the compound `Cc1ccc(-c2nc3ccccc3n2Cc2ccccc2)o1` [Example 6, 1-Benzyl-2-(5-methyl-2-furyl)benzimidazole], the “effect on platelet aggregation caused by ADP” value in experiment [1] (data not shown) is listed as “little effects”. For the same compound, in experiment [1] (human platelet suspension, preliminary, compound concentration not given), the “% inhibition ADF” value is on record as 10.9%. Moreover, the Thromboxane synthase entry on Thromboxane synthase (Table III arrows) was “↓”. For the same compound, the IC50 at Thromboxane synthase (read-out: Thromboxane synthase inhibition IC50) was determined as 10 µM. In the experiment with rat carotid artery, the “N/M ratio (neointima/media)” value is “significantly inhibited”. In addition, the “cellular infiltration of the airways” value with mice (10 and 20 mg/kg/day) is given as “reduced”. The “OVA-specific IgE, IgG2a and IgG1 levels in serum” value in the experiment on mice (10 or 20 mg/kg) was “significant reduction”. For the same compound, in the experiment on mice (Group 3 and Group 4 (10 or 20 mg/kg)), the “asthma symptoms after OVA challenge” value is “alleviated symptoms”.

By IC50 is commonly meant the concentration that inhibits the measured activity by half.
